Measurements from ChEMBL document CHEMBL3885861, “Open TG-GATES”.

Organism: Rattus norvegicus
Test: Open TG-GATES - Regimen: Single
Assay type: toxicity, organism-based, Sprague-Dawley
Design: regimen Single, gender Male, age 6 weeks
Settings: in vivo, po, 30 mg/kg, route gavage, dose level Low; for APTT / Bas / Eos / Fbg / Hb / Ht / Lym / MCH / MCHC / MCV / Mono / Neu / PT / Plat / RBC / Ret / WBC: tissue Blood; for KIDNEY_L / KIDNEY_R / KIDNEY_TOTAL: tissue Kidney; for LIVER: tissue Liver; for A/G / ALP / ALT / AST / BUN / CRE / Ca / Cl / DBIL / GLC / IP / K / LDH / Na / PL / RALB / TBIL / TC / TG / TP / gamma-GTP: tissue Plasma

SMILES: CCc1oc2ccccc2c1C(=O)c1cc(I)c(O)c(I)c1 [BENZIODARONE]
- TERMINAL_BW (3 h): 212.2 g
- APTT (3 h): 16.6 s
- Bas (3 h): 0%
- Eos (3 h): 1%
- Fbg (3 h): 202.4 mg/dL
- Hb (3 h): 14 g/dL
- Ht (3 h): 41.5%
- Lym (3 h): 74.4%
- MCH (3 h): 21.7 pg
- MCHC (3 h): 33.8%
- MCV (3 h): 64.3 fL
- Mono (3 h): 10%
- Neu (3 h): 14.8%
- PT (3 h): 12 s
- Plat (3 h): 117.6 x10_4/uL
- RBC (3 h): 645.8 x10_4/ul
- Ret (3 h): 8.1%
- WBC (3 h): 97.8 x10_2/uL
- KIDNEY_L (3 h): 1 g
- KIDNEY_R (3 h): 1 g
- KIDNEY_TOTAL (3 h): 2 g
- LIVER (3 h): 10 g
- A/G (3 h): 2.1
- ALP (3 h): 939.2 IU/L
- ALT (3 h): 33.8 IU/L
- AST (3 h): 66.6 IU/L
- BUN (3 h): 11 mg/dL
- CRE (3 h): 0.5 mg/dL
- Ca (3 h): 10.6 mg/dL
- Cl (3 h): 103.4 meq/L
- DBIL (3 h): 0 mg/dL
- GLC (3 h): 192.8 mg/dL
- IP (3 h): 9.7 mg/dL
- K (3 h): 4.4 meq/L
- LDH (3 h): 109.6 IU/L
- Na (3 h): 141 meq/L
- PL (3 h): 131.2 mg/dL
- RALB (3 h): 3.7 g/dL
- TBIL (3 h): 0.4 mg/dL
- TC (3 h): 73 mg/dL
- TG (3 h): 56.8 mg/dL
- TP (3 h): 5.4 g/dL
- gamma-GTP (3 h): 2 IU/L
- TERMINAL_BW (6 h): 213.4 g
- APTT (6 h): 16.4 s
- Bas (6 h): 0%
- Eos (6 h): 1%
- Fbg (6 h): 218.2 mg/dL
- Hb (6 h): 13.7 g/dL
- Ht (6 h): 41%
- Lym (6 h): 82%
- MCH (6 h): 21.9 pg
- MCHC (6 h): 33.4%
- MCV (6 h): 65.6 fL
- Mono (6 h): 7.8%
- Neu (6 h): 9.8%
- PT (6 h): 12 s
- Plat (6 h): 108.5 x10_4/uL
- RBC (6 h): 625.4 x10_4/ul
- Ret (6 h): 10.8%
- WBC (6 h): 102.6 x10_2/uL
- KIDNEY_L (6 h): 1 g
- KIDNEY_R (6 h): 1 g
- KIDNEY_TOTAL (6 h): 1.9 g
- LIVER (6 h): 9.8 g
- A/G (6 h): 2.2
- ALP (6 h): 728.8 IU/L
- ALT (6 h): 31 IU/L
- AST (6 h): 65.6 IU/L
- BUN (6 h): 11.8 mg/dL
- CRE (6 h): 0.5 mg/dL
- Ca (6 h): 10.7 mg/dL
- Cl (6 h): 105 meq/L
- DBIL (6 h): 0.03 mg/dL
- GLC (6 h): 183.4 mg/dL
- IP (6 h): 9.8 mg/dL
- K (6 h): 4.6 meq/L
- LDH (6 h): 105.2 IU/L
- Na (6 h): 141.6 meq/L
- PL (6 h): 130.6 mg/dL
- RALB (6 h): 3.7 g/dL
- TBIL (6 h): 0.3 mg/dL
- TC (6 h): 76.6 mg/dL
- TG (6 h): 55.2 mg/dL
- TP (6 h): 5.4 g/dL
- gamma-GTP (6 h): 1.8 IU/L
- TERMINAL_BW (9 h): 210.3 g
- APTT (9 h): 17.9 s
- Bas (9 h): 0%
- Eos (9 h): 1%
- Fbg (9 h): 203.2 mg/dL
- Hb (9 h): 13.5 g/dL
- Ht (9 h): 40.3%
- Lym (9 h): 76.8%
- MCH (9 h): 21.7 pg
- MCHC (9 h): 33.6%
- MCV (9 h): 64.5 fL
- Mono (9 h): 8%
- Neu (9 h): 14.6%
- PT (9 h): 12 s
- Plat (9 h): 110.8 x10_4/uL
- RBC (9 h): 624.8 x10_4/ul
- Ret (9 h): 8.2%
- WBC (9 h): 78 x10_2/uL
- KIDNEY_L (9 h): 0.9 g
- KIDNEY_R (9 h): 1 g
- KIDNEY_TOTAL (9 h): 1.9 g
- LIVER (9 h): 9 g
- A/G (9 h): 2.2
- ALP (9 h): 748.4 IU/L
- ALT (9 h): 28.8 IU/L
- AST (9 h): 58.6 IU/L
- BUN (9 h): 11.4 mg/dL
- CRE (9 h): 0.4 mg/dL
- Ca (9 h): 10.4 mg/dL
- Cl (9 h): 105.4 meq/L
- DBIL (9 h): 0.086 mg/dL
- GLC (9 h): 198 mg/dL
- IP (9 h): 10.4 mg/dL
- K (9 h): 4.5 meq/L
- LDH (9 h): 88.4 IU/L
- Na (9 h): 142.8 meq/L
- PL (9 h): 129.2 mg/dL
- RALB (9 h): 3.7 g/dL
- TBIL (9 h): 0.3 mg/dL
- TC (9 h): 67.6 mg/dL
- TG (9 h): 48.6 mg/dL
- TP (9 h): 5.5 g/dL
- gamma-GTP (9 h): 0.8 IU/L
- TERMINAL_BW (24 h): 226.7 g
- APTT (24 h): 17.3 s
- Bas (24 h): 0%
- Eos (24 h): 1%
- Fbg (24 h): 206.6 mg/dL
- Hb (24 h): 13.4 g/dL
- Ht (24 h): 39.2%
- Lym (24 h): 76.4%
- MCH (24 h): 22.1 pg
- MCHC (24 h): 34.2%
- MCV (24 h): 64.8 fL
- Mono (24 h): 7.4%
- Neu (24 h): 15%
- PT (24 h): 11.9 s
- Plat (24 h): 117.8 x10_4/uL
- RBC (24 h): 605 x10_4/ul
- Ret (24 h): 8.1%
- WBC (24 h): 94 x10_2/uL
- KIDNEY_L (24 h): 1 g
- KIDNEY_R (24 h): 1 g
- KIDNEY_TOTAL (24 h): 2 g
- LIVER (24 h): 11.1 g
- A/G (24 h): 2.1
- ALP (24 h): 882.8 IU/L
- ALT (24 h): 34.6 IU/L
- AST (24 h): 70.8 IU/L
- BUN (24 h): 17.4 mg/dL
- CRE (24 h): 0.6 mg/dL
- Ca (24 h): 10.6 mg/dL
- Cl (24 h): 104.6 meq/L
- DBIL (24 h): 0.006 mg/dL
- GLC (24 h): 197.2 mg/dL
- IP (24 h): 7.4 mg/dL
- K (24 h): 4.7 meq/L
- LDH (24 h): 95.8 IU/L
- Na (24 h): 141 meq/L
- PL (24 h): 138.2 mg/dL
- RALB (24 h): 3.8 g/dL
- TBIL (24 h): 0.3 mg/dL
- TC (24 h): 73.2 mg/dL
- TG (24 h): 81.6 mg/dL
- TP (24 h): 5.6 g/dL
- gamma-GTP (24 h): 1 IU/L
